Assay results taken from US6646181B1, “Solid matrix control of seed conditioning using selected cell cycle stages” (Kamterter II, L.L.C., priority 1987, dated 2003).

System: lettuce (Lactuca sativa) 'Montello'
Assay: Alleviation of thermodormancy: lettuce germination at 35 C
Assay type: in vivo
Details: 35 C in the dark, after 10 days, priming 20-24 hours
Procedure: Alleviation of thermodormancy by priming was studied in lettuce (Lactuca sativa) ‘Montello’. SMP of lettuce was performed with Agro-Lig (Table 1). Conventional priming treatments included: −1.5 MPa PEG 8000 (Bradford, 1986, supra) and 1.0% K3PO4 (Cantliffe, et al., 1984, Plant Physiol. 75:290-294). After priming, seeds were rinsed and allowed to dry. Seeds were placed to germinate on moistened blotters in closed containers. The containers were maintained at a constant 35 C in the dark. There were four replications of 50 seeds each and the percent germination was determined after 10 days.

Q: O=P([O-])([O-])[O-].[K+].[K+].[K+] [1.0% K3PO4, K3PO4] was tested. Which Percent germination did it give?
A: 71 a %
